Data: PubChem BioAssay (NCI)
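Where inhibition never reached the appropriate level, the endpoint shown equals the highest concentration tested. Otherwise, values were interpolated linearly from a five-concentration, 48-hour dose response in 96-well plates. GI50 = concentration required for 50% inhibition of growth. TGI denotes the concentration required for complete inhibition of growth.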 Where a SMILES comes first, the peptide text is derived from it. Bridges are numbered along the chain shown (N, C = ends). [ ]: non-standard residue; d: D form. The star is where a group is joined. Phe(3,5-F2) = N[C@@H](Cc1cc(F)cc(F)c1)C(=O)O; Pro(4R-Me) = C[C@H]1CN[C@H](C(=O)O)C1; aThr = C[C@H](O)[C@H](N)C(=O)O; Pip = O=C(O)[C@@H]1CCCCN1; X7 = CCC/C=C/C=C/C(=O)*

How the values were obtained:
Experiment in all cases: growth of human tumour cells (NCI), 48 h
KM12 colon = system: KM12 colon
MDA-MB-435 = system: MDA-MB-435
NCI-H23 lung = system: NCI-H23 lung
CAKI-1 renal = system: CAKI-1 renal
HL-60(TB) leukemia = system: HL-60(TB) leukemia
MOLT-4 leukemia = system: MOLT-4 leukemia
A549 NSCLC = system: A549 NSCLC
UACC-62 melanoma = system: UACC-62 melanoma
HCC-2998 colon = system: HCC-2998 colon
IGROV1 ovarian = system: IGROV1 ovarian
SNB-19 CNS = system: SNB-19 CNS
OVCAR-8 ovarian = system: OVCAR-8 ovarian
HCT-15 colon = system: HCT-15 colon
T-47D breast = system: T-47D breast
MDA-MB-231 breast = system: MDA-MB-231 breast
RPMI-8226 leukemia = system: RPMI-8226 leukemia
SW-620 colon = system: SW-620 colon
NCI-H226 lung = system: NCI-H226 lung
A498 renal = system: A498 renal
ACHN renal = system: ACHN renal
LOX IMVI melanoma = system: LOX IMVI melanoma
M14 melanoma = system: M14 melanoma
SF-295 CNS = system: SF-295 CNS
SN12C renal = system: SN12C renal
HOP-92 NSCLC = system: HOP-92 NSCLC
K-562 leukemia = system: K-562 leukemia
HCT-116 colon = system: HCT-116 colon
HOP-62 NSCLC = system: HOP-62 NSCLC
U251 CNS = system: U251 CNS
MCF7 breast = system: MCF7 breast
MALME-3M melanoma = system: MALME-3M melanoma
UACC-257 melanoma = system: UACC-257 melanoma
PC-3 prostate = system: PC-3 prostate
HS 578T breast = system: HS 578T breast
SK-MEL-2 melanoma = system: SK-MEL-2 melanoma
OVCAR-5 ovarian = system: OVCAR-5 ovarian
COLO 205 colon = system: COLO 205 colon
UO-31 renal = system: UO-31 renal
SNB-75 CNS = system: SNB-75 CNS
OVCAR-4 ovarian = system: OVCAR-4 ovarian
NCI-H460 lung = system: NCI-H460 lung
DU-145 prostate = system: DU-145 prostate
TK-10 renal = system: TK-10 renal
SR leukemia = system: SR leukemia
SK-MEL-5 melanoma = system: SK-MEL-5 melanoma
HT29 colon = system: HT29 colon
NCI-H522 lung = system: NCI-H522 lung
OVCAR-3 ovarian = system: OVCAR-3 ovarian
786-0 renal = system: 786-0 renal
NCI/ADR-RES ovarian = system: NCI/ADR-RES ovarian
SF-539 CNS = system: SF-539 CNS
BT-549 breast = system: BT-549 breast
CCRF-CEM leukemia = system: CCRF-CEM leukemia
EKVX NSCLC = system: EKVX NSCLC
SK-MEL-28 melanoma = system: SK-MEL-28 melanoma
SF-268 CNS = system: SF-268 CNS
SK-OV-3 ovarian = system: SK-OV-3 ovarian
RXF 393 renal = system: RXF 393 renal

Structure (SMILES): CCC/C=C/C=C/C(=O)N[C@@H](Cc1cc(F)cc(F)c1)C(=O)N[C@@H]1C(=O)N2CCC[C@H]2C(=O)N2CCCC[C@H]2C(=O)N[C@@H](C)C(=O)N2C[C@H](C)C[C@H]2C(=O)O[C@H]1C (X7-[Phe(3,5-F2)][aThr]P[Pip]A[Pro(4R-Me)]; ester 2-C)
- GI50 (KM12 colon): 1.81 µM
- TGI (KM12 colon): 29 µM
- GI50 (MDA-MB-435): 0.412 µM
- TGI (MDA-MB-435): 5.71 µM
- GI50 (NCI-H23 lung): 0.389 µM
- TGI (NCI-H23 lung): 13.4 µM
- GI50 (CAKI-1 renal): 0.415 µM
- TGI (CAKI-1 renal): 12.5 µM
- GI50 (HL-60(TB) leukemia): 0.404 µM
- TGI (HL-60(TB) leukemia): 5.83 µM
- GI50 (MOLT-4 leukemia): 1.11 µM
- TGI (MOLT-4 leukemia): > 44 µM
- GI50 (A549 NSCLC): 0.506 µM
- TGI (A549 NSCLC): > 58.5 µM
- GI50 (UACC-62 melanoma): 0.522 µM
- TGI (UACC-62 melanoma): 6.37 µM
- GI50 (HCC-2998 colon): 0.463 µM
- TGI (HCC-2998 colon): 4.93 µM
- GI50 (IGROV1 ovarian): 1.78 µM
- TGI (IGROV1 ovarian): 23.7 µM
- GI50 (SNB-19 CNS): 0.405 µM
- TGI (SNB-19 CNS): 35.2 µM
- GI50 (OVCAR-8 ovarian): 0.414 µM
- TGI (OVCAR-8 ovarian): > 46.8 µM
- GI50 (HCT-15 colon): 0.482 µM
- TGI (HCT-15 colon): 11 µM
- GI50 (T-47D breast): 0.453 µM
- TGI (T-47D breast): 13.9 µM
- GI50 (MDA-MB-231 breast): 0.409 µM
- TGI (MDA-MB-231 breast): 3.36 µM
- GI50 (RPMI-8226 leukemia): 0.339 µM
- TGI (RPMI-8226 leukemia): 4.76 µM
- GI50 (SW-620 colon): 0.704 µM
- TGI (SW-620 colon): > 46.1 µM
- GI50 (NCI-H226 lung): 0.547 µM
- TGI (NCI-H226 lung): 7.97 µM
- GI50 (A498 renal): 2.43 µM
- TGI (A498 renal): 28.4 µM
- GI50 (ACHN renal): 1.12 µM
- TGI (ACHN renal): 28.7 µM
- GI50 (LOX IMVI melanoma): 0.433 µM
- TGI (LOX IMVI melanoma): 12.8 µM
- GI50 (M14 melanoma): 0.461 µM
- TGI (M14 melanoma): 5.23 µM
- GI50 (SF-295 CNS): 0.358 µM
- TGI (SF-295 CNS): 2.03 µM
- GI50 (SN12C renal): 0.419 µM
- TGI (SN12C renal): 15.5 µM
- GI50 (HOP-92 NSCLC): 0.313 µM
- TGI (HOP-92 NSCLC): 3.74 µM
- GI50 (K-562 leukemia): 0.402 µM
- TGI (K-562 leukemia): > 100 µM
- GI50 (HCT-116 colon): 0.42 µM
- TGI (HCT-116 colon): 11.4 µM
- GI50 (HOP-62 NSCLC): 0.516 µM
- TGI (HOP-62 NSCLC): 16.9 µM
- GI50 (U251 CNS): 0.451 µM
- TGI (U251 CNS): 16.5 µM
- GI50 (MCF7 breast): 0.354 µM
- TGI (MCF7 breast): 13.6 µM
- GI50 (MALME-3M melanoma): 1.01 µM
- TGI (MALME-3M melanoma): 14 µM
- GI50 (UACC-257 melanoma): 0.356 µM
- TGI (UACC-257 melanoma): 4.16 µM
- GI50 (PC-3 prostate): 0.367 µM
- TGI (PC-3 prostate): 17.2 µM
- GI50 (HS 578T breast): 0.594 µM
- TGI (HS 578T breast): 17.4 µM
- GI50 (SK-MEL-2 melanoma): 0.422 µM
- TGI (SK-MEL-2 melanoma): 5.1 µM
- GI50 (OVCAR-5 ovarian): 0.583 µM
- TGI (OVCAR-5 ovarian): 6.13 µM
- GI50 (COLO 205 colon): 0.286 µM
- TGI (COLO 205 colon): 0.85 µM
- GI50 (UO-31 renal): 1.08 µM
- TGI (UO-31 renal): 27.5 µM
- GI50 (SNB-75 CNS): 0.313 µM
- TGI (SNB-75 CNS): 12.7 µM
- GI50 (OVCAR-4 ovarian): 0.395 µM
- TGI (OVCAR-4 ovarian): 19.3 µM
- GI50 (NCI-H460 lung): 0.5 µM
- TGI (NCI-H460 lung): 14.1 µM
- GI50 (DU-145 prostate): 0.619 µM
- TGI (DU-145 prostate): > 66.7 µM
- GI50 (TK-10 renal): 1.05 µM
- TGI (TK-10 renal): 43.7 µM
- GI50 (SR leukemia): 0.892 µM
- TGI (SR leukemia): 26.4 µM
- GI50 (SK-MEL-5 melanoma): 0.509 µM
- TGI (SK-MEL-5 melanoma): 3.31 µM
- GI50 (HT29 colon): 0.586 µM
- TGI (HT29 colon): 4.16 µM
- GI50 (NCI-H522 lung): 0.462 µM
- TGI (NCI-H522 lung): 13 µM
- GI50 (OVCAR-3 ovarian): 0.596 µM
- TGI (OVCAR-3 ovarian): 17.1 µM
- GI50 (786-0 renal): 0.842 µM
- TGI (786-0 renal): 31 µM
- GI50 (NCI/ADR-RES ovarian): 2.17 µM
- TGI (NCI/ADR-RES ovarian): 16.1 µM
- GI50 (SF-539 CNS): 0.744 µM
- TGI (SF-539 CNS): 13.5 µM
- GI50 (BT-549 breast): 0.37 µM
- TGI (BT-549 breast): 3.4 µM
- GI50 (CCRF-CEM leukemia): 0.411 µM
- TGI (CCRF-CEM leukemia): 14.5 µM
- GI50 (EKVX NSCLC): 0.491 µM
- TGI (EKVX NSCLC): 26.2 µM
- GI50 (SK-MEL-28 melanoma): 0.987 µM
- TGI (SK-MEL-28 melanoma): 14.1 µM
- GI50 (SF-268 CNS): 0.957 µM
- TGI (SF-268 CNS): > 46.4 µM
- GI50 (SK-OV-3 ovarian): 0.499 µM
- TGI (SK-OV-3 ovarian): 12.8 µM
- GI50 (RXF 393 renal): 1.5 µM
- TGI (RXF 393 renal): 8.29 µM
